Experimental data as given in ChEMBL document CHEMBL2169754, “Imidazo[1,2-a]pyridines That Directly Interact with Hepatitis C NS4B: Initial Preclinical Characterization” (ACS Med Chem Lett, 2012).
One block for each compound: values may come before it.

Legend:
[1] = Solubility of the compound; format: physicochemical
Hepatitis C virus [2] = test: Antiviral activity against wild type HCV genotype 1a infected in human HuH7 cells after 48 hrs by luciferase reporter gene assay; format: functional, organism-based, Hepacivirus hominis; conditions: subtype 1a, Huh-7, 48 h
Hepatitis C virus [3] = test: Antiviral activity against wild type HCV genotype 1b infected in human HuH7 cells after 48 hrs by luciferase reporter gene assay; format: functional, organism-based, Hepacivirus hominis; conditions: Huh-7, 48 h
Hepatitis C virus [4] = test: Displacement of [3H]-3-(1-(3-chloro-6-isopropyl-8-(trifluoromethyl)imidazo[1,2-a]pyridine-2-carbonyl)piperidin-4-yl)oxazolidin-2-one from HCV genotype 1b His6-tagged NS4B expressed in baculovirus infected Sf9 cells after overnight incubation; design: species or system Hepatitis C virus subtype 1b
Hepatitis C virus [5] = test: Binding affinity to HCV genotype 1b His6-tagged NS4B expressed in baculovirus infected Sf9 cells after overnight incubation; conditions: Hepatitis C virus subtype 1b, tested as the 3H-labelled form
[6] = AUC (0 to 24 hrs) in Sprague-Dawley rat at 5 mg/kg, po; format: ADME, organism-based; design: time < 24 hr, dose 5 mg/kg, route oral; conditions: plasma
[7] = Oral bioavailability in Sprague-Dawley rat at 5 mg/kg; format: ADME, organism-based; conditions: in vivo
[8] = Half life in Sprague-Dawley rat at 5 mg/kg, po; format: ADME, organism-based; design: dose 5 mg/kg, route oral; conditions: in vivo
[9] = Clearance in Sprague-Dawley rat at 1 mg/kg, iv; format: ADME, organism-based; design: dose 1 mg/kg, route intravenous; conditions: in vivo
[10] = Volume of distribution at steady state in Sprague-Dawley rat at 1 mg/kg, iv; format: ADME, organism-based; design: dose 1 mg/kg, route intravenous; conditions: in vivo, read-out: Vdss
Cytochrome P450 3A4 = Cytochrome P450 3A4 (Homo sapiens, UniProt P08684); test: Inhibition of CYP3A4 in human liver microsomes after 7 mins by LC/MS/MS analysis; format: ADME, Microsome
Cytochrome P450 3A4, sequence (P08684 whole entry): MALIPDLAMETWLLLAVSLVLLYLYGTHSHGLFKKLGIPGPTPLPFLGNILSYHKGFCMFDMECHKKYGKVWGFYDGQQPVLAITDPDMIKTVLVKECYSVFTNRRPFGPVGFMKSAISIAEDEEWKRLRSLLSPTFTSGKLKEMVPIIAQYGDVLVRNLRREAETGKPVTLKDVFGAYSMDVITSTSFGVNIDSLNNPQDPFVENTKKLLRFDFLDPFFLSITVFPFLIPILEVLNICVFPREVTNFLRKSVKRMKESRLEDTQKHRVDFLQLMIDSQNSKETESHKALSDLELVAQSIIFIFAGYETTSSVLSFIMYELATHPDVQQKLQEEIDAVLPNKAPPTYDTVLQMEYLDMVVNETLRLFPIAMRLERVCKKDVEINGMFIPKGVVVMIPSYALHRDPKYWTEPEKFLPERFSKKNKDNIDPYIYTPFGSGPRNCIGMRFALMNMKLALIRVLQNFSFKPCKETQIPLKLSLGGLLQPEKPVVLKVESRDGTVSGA

Cytochrome P450 2D6 = Cytochrome P450 2D6 (Homo sapiens, UniProt P10635); test: Inhibition of CYP2D6 in human liver microsomes after 10 mins by LC/MS/MS analysis; format: ADME, Microsome
Cytochrome P450 2D6, sequence (P10635 whole entry): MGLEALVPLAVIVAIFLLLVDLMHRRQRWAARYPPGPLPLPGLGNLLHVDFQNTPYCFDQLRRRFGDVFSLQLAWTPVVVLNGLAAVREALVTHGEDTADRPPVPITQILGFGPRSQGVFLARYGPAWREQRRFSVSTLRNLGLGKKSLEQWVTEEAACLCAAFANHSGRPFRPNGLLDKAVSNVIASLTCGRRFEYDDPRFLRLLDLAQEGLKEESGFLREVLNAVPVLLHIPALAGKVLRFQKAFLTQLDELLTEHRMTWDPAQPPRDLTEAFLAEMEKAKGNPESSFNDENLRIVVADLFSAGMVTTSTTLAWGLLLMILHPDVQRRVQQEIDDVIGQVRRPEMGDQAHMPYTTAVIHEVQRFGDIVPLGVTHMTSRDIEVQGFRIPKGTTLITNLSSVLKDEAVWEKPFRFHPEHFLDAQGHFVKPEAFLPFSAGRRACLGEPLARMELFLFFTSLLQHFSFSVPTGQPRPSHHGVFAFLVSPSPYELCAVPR

Cytochrome P450 2C19 = Cytochrome P450 2C19 (Homo sapiens, UniProt P33261); test: Inhibition of CYP2C19 in human liver microsomes after 10 mins by LC/MS/MS analysis; format: ADME, Microsome
Cytochrome P450 2C19, sequence (P33261 whole entry): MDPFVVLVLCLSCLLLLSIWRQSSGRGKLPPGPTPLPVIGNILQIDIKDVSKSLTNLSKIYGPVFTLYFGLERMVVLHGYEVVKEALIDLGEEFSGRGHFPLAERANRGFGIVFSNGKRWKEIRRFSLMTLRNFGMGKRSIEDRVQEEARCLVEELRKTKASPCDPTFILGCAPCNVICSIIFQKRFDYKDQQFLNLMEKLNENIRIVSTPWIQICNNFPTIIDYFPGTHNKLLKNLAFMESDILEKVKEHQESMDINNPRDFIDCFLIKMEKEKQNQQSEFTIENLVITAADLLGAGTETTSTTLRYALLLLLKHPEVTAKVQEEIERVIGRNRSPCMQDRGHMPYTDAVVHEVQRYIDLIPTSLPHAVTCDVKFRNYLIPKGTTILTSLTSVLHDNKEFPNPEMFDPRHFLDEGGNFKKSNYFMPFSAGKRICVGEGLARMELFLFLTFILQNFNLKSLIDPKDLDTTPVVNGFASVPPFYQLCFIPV

Cytochrome P450 1A2 = biological target: T1, Cytochrome P450 1A2 (Homo sapiens, UniProt P05177); test: Inhibition of CYP1A2 in human liver microsomes after 10 mins by LC/MS/MS analysis; format: ADME, Microsome
T1 sequence (P05177 whole entry): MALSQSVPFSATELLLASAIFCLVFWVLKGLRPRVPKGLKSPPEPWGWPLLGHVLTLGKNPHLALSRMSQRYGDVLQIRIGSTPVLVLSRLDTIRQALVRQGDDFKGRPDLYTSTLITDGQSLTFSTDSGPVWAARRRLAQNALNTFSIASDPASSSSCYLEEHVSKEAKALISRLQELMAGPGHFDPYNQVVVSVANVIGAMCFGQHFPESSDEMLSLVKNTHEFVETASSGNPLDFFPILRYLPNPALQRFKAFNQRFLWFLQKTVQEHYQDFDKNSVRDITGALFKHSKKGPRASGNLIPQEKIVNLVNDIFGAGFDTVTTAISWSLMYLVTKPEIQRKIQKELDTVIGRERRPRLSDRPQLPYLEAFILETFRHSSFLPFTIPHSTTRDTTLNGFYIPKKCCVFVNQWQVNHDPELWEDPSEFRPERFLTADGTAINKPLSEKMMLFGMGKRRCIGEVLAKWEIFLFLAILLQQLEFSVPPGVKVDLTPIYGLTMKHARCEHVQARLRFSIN

Cytochrome P450 2C9 = Cytochrome P450 2C9 (Homo sapiens, UniProt P11712); test: Inhibition of CYP2C9 in human liver microsomes after 10 mins by LC/MS/MS analysis; format: ADME, Microsome
Cytochrome P450 2C9, sequence (P11712 whole entry): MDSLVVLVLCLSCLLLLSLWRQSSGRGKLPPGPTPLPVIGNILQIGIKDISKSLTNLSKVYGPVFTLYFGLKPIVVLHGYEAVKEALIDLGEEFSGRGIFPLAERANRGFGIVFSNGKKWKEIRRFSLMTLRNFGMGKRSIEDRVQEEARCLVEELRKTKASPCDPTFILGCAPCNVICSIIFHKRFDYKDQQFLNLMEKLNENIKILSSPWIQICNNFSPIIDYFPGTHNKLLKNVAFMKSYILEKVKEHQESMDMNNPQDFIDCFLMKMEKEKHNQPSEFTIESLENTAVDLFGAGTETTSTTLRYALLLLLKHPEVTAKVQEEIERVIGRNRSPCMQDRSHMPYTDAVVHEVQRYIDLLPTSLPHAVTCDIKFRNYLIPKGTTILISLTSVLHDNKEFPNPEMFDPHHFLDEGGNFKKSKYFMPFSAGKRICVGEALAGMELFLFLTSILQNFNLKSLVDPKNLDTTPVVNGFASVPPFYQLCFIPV

Liver microsomes [11] = test: Drug metabolism in rat liver microsomes assessed as reactive metabolite formation at 10 uM after 30 mins by glutathione trapping assay; format: ADME, Microsome; conditions: 0.5 h
Liver microsomes [12] = test: Drug metabolism in human liver microsomes assessed as reactive metabolite formation at 10 uM after 30 mins by glutathione trapping assay; format: ADME, Microsome; conditions: 0.5 h
[13] = Oral bioavailability in beagle dog at 5 mg/kg; format: ADME, organism-based, Canis lupus familiaris; conditions: in vivo
[14] = AUC (0 to 24 hrs) in beagle dog at 5 mg/kg, po; format: ADME, organism-based, Canis lupus familiaris; design: time < 24 hr, dose 5 mg/kg, route oral; conditions: plasma
[15] = Volume of distribution at steady state in beagle dog at 1 mg/kg, iv; format: ADME, organism-based, Canis lupus familiaris; design: dose 1 mg/kg, route intravenous; conditions: in vivo, read-out: Vdss
[16] = Half life in beagle dog at 5 mg/kg, po; format: ADME, organism-based, Canis lupus familiaris; design: dose 5 mg/kg, route oral; conditions: in vivo
[17] = Clearance in beagle dog at 1 mg/kg, iv; format: ADME, organism-based, Canis lupus familiaris; design: dose 1 mg/kg, route intravenous; conditions: in vivo
Hepatitis C virus [18] = test: Ratio of EC50 for HCV genotype 1b expressing NS4B H94N mutant to EC50 for wild type HCV genotype 1b; format: functional, Hepacivirus hominis
Hepatitis C virus [19] = test: Ratio of EC50 for HCV genotype 1b expressing NS4B V105N mutant to EC50 for wild type HCV genotype 1b; format: functional, Hepacivirus hominis
Hepatitis C virus [20] = test: Antiviral activity against HCV genotype 1b expressing NS5A L31V mutant transiently infected in human HuH7 cells after 48 hrs by luciferase reporter gene assay; format: functional, organism-based, Hepacivirus hominis; conditions: Huh-7, 48 h
Hepatitis C virus [21] = test: Antiviral activity against HCV genotype 1b expressing NS5B M414T mutant transiently infected in human HuH7 cells after 48 hrs by luciferase reporter gene assay; format: functional, organism-based, Hepacivirus hominis; conditions: Huh-7, 48 h
Hepatitis C virus [22] = test: Antiviral activity against HCV genotype 1b expressing NS3 A156T mutant transiently infected in human HuH7 cells after 48 hrs by luciferase reporter gene assay; format: functional, organism-based, Hepacivirus hominis; conditions: Huh-7, 48 h
Hepatitis C virus [23] = test: Antiviral activity against HCV genotype 1b expressing NS4B F98L mutant transiently infected in human HuH7 cells after 48 hrs by luciferase reporter gene assay; format: functional, organism-based, Hepacivirus hominis; conditions: Huh-7, 48 h
Hepatitis C virus [24] = test: Antiviral activity against HCV genotype 1b expressing NS4B V105L mutant transiently infected in human HuH7 cells after 48 hrs by luciferase reporter gene assay; format: functional, organism-based, Hepacivirus hominis; conditions: Huh-7, 48 h
Hepatitis C virus [25] = test: Antiviral activity against HCV genotype 1b expressing NS4B H94R mutant transiently infected in human HuH7 cells after 48 hrs by luciferase reporter gene assay; format: functional, organism-based, Hepacivirus hominis; conditions: Huh-7, 48 h
Hepatitis C virus [26] = test: Antiviral activity against HCV genotype 1b expressing NS4B V105M mutant stably infected in human HuH7 cells after 48 hrs by luciferase reporter gene assay; format: functional, organism-based, Hepacivirus hominis; conditions: Huh-7, 48 h
Hepatitis C virus [27] = test: Antiviral activity against HCV genotype 1b expressing NS4B H94N mutant stably infected in human HuH7 cells after 48 hrs by luciferase reporter gene assay; format: functional, organism-based, Hepacivirus hominis; conditions: Huh-7, 48 h

SMILES: O=C(c1nc2c(C(F)(F)F)cc(-c3ccoc3)cn2c1Cl)N1CCC(c2ccncc2)C1 (racemic)
EC50 (Hepatitis C virus [2]): 380 nM | EC50 (Hepatitis C virus [3]): 270 nM | IC50 (Hepatitis C virus [4]): 25 nM

SMILES: CC(C)c1cc(C(F)(F)F)c2nc(C(=O)N3CCC(N4CCOC4=O)CC3)c(Cl)n2c1
EC50 (Hepatitis C virus [2]): < 55 nM | EC50 (Hepatitis C virus [3]): < 55 nM | Kapp (Hepatitis C virus [5]): 30 nM

SMILES: O=C(c1nc2c(C(F)(F)F)cc(-c3cn[nH]c3)cn2c1Br)N1CCC(c2cccs2)C1 (stereo not drawn)
EC50 (Hepatitis C virus [2]): < 55 nM | EC50 (Hepatitis C virus [3]): < 55 nM | Kapp (Hepatitis C virus [5]): 76 nM

SMILES: O=C(c1nc2c(C(F)(F)F)cc(C3CC3)cn2c1Cl)N1CCN([C@H]2CC[C@H](O)CC2)C(=O)C1
bioavailability [13]: 65% | AUC(0-t) at 24 h [14]: 52000 ng·h/mL | Vd [15]: 0.9 L/kg | half-life [16]: 10 h | clearance [17]: 1.1 mL/min/kg | Ratio EC50 (Hepatitis C virus [18]): >100 | Ratio EC50 (Hepatitis C virus [19]): >100 | EC50 (Hepatitis C virus [20]): 1 nM | EC50 (Hepatitis C virus [21]): 1 nM | EC50 (Hepatitis C virus [22]): 1 nM | EC50 (Hepatitis C virus [23]): 27 nM | EC50 (Hepatitis C virus [24]): 38 nM | EC50 (Hepatitis C virus [25]): 53 nM | EC50 (Hepatitis C virus [26]): 800 nM | EC50 (Hepatitis C virus [27]): 200 nM | AUC(0-t) at 24 h [6]: 3800 ng·h/mL | bioavailability [7]: 98% | half-life [8]: 3 h | clearance [9]: 20 mL/min/kg | Vd [10]: 4.1 L/kg | solubility [1]: > 500 µM | inhibition (INH) (Cytochrome P450 3A4): Not Active | inhibition (INH) (Cytochrome P450 2D6): Not Active | inhibition (INH) (Cytochrome P450 2C19): Not Active | inhibition (INH) (Cytochrome P450 1A2): Not Active | inhibition (INH) (Cytochrome P450 2C9): Not Active | Drug metabolism (Liver microsomes [11]): Not Active | Drug metabolism (Liver microsomes [12]): Not Active | EC50 (Hepatitis C virus [2]): 0.81 nM | EC50 (Hepatitis C virus [3]): 5.4 nM | IC50 (Hepatitis C virus [4]): 60 nM

SMILES: O=C(c1nc2c(C(F)(F)F)cc(-c3ccoc3)cn2c1Cl)N1CCN(c2ccccc2)C(=O)C1
EC50 (Hepatitis C virus [2]): 430 nM | EC50 (Hepatitis C virus [3]): 160 nM | IC50 (Hepatitis C virus [4]): 24 nM

SMILES: O=C(NCc1cccs1)c1cc2nc(-c3ccco3)cc(C(F)(F)Cl)n2n1 [ANGUIZOLE]
EC50 (Hepatitis C virus [2]): 740 nM | EC50 (Hepatitis C virus [3]): 450 nM | IC50 (Hepatitis C virus [4]): 22 nM

Second part, the compound after the results:

solubility [1]: > 500 µM | EC50 (Hepatitis C virus [2]): 18000 nM | EC50 (Hepatitis C virus [3]): 36000 nM | IC50 (Hepatitis C virus [4]): 1200 nM
SMILES: CN1CCN(C(=O)c2nc3c(C(F)(F)F)cc(-c4ccoc4)cn3c2Cl)CC1=O

solubility [1]: > 500 µM | EC50 (Hepatitis C virus [2]): 33000 nM | EC50 (Hepatitis C virus [3]): 31000 nM | IC50 (Hepatitis C virus [4]): 9000 nM
SMILES: CC1(C)COC(=O)N1C1CCN(C(=O)c2nc3c(C(F)(F)F)cc(-c4ccoc4)cn3c2Cl)CC1

AUC(0-t) at 24 h [6]: 700 ng·h/mL | bioavailability [7]: 60% | half-life [8]: 1.9 h | clearance [9]: 72 mL/min/kg | Vd [10]: 2.5 L/kg | solubility [1]: > 500 µM | inhibition (INH) (Cytochrome P450 3A4): Not Active | inhibition (INH) (Cytochrome P450 2D6): Not Active | inhibition (INH) (Cytochrome P450 2C19): Not Active | inhibition (INH) (Cytochrome P450 1A2): Not Active | inhibition (INH) (Cytochrome P450 2C9): Not Active | Drug metabolism (Liver microsomes [11]): Not Active | Drug metabolism (Liver microsomes [12]): Not Active | EC50 (Hepatitis C virus [2]): 7.4 nM | EC50 (Hepatitis C virus [3]): 18 nM | IC50 (Hepatitis C virus [4]): 150 nM
SMILES: O=C(c1nc2c(C(F)(F)F)cc(-c3ccoc3)cn2c1Cl)N1CCC(N2CCOC2=O)CC1

solubility [1]: > 500 µM | EC50 (Hepatitis C virus [2]): 9900 nM | EC50 (Hepatitis C virus [3]): 76000 nM | IC50 (Hepatitis C virus [4]): 220 nM
SMILES: CC1(C)CN(C2CCN(C(=O)c3nc4c(C(F)(F)F)cc(-c5ccoc5)cn4c3Cl)CC2)C(=O)O1

solubility [1]: > 500 µM | EC50 (Hepatitis C virus [2]): 260 nM | EC50 (Hepatitis C virus [3]): 90 nM | IC50 (Hepatitis C virus [4]): 170 nM
SMILES: O=C(c1nc2c(C(F)(F)F)cc(-c3ccoc3)cn2c1Cl)N1CCC(N2CCCC2=O)CC1
